Counter-ions that a name gives are not always drawn. Like-named read-outs stand apart in the source and are kept apart here.
What was measured:
CK-1 male mice = assay: climbing mice assay (antagonism of apomorphine-induced climbing); assay type: in vivo; conditions: Mus musculus, ip, read-out: CLIMBING MOUSE ASSAY (ED₅₀ mg/kg, ip)
Description: The compounds of the present invention are useful for treating psychoses by virtue of their ability to elicit an antipsychotic response in animals. Antipsychotic activity is determined in the climbing mice assay by a method similar to those described by P. Protais, et al., Psychopharmacol., 50:1(1976) and B. Costall, Eur. J. Pharmacol., 50:39 (1978).
Subject CK-1 male mice (23-27 grams) are grouped-housed under standard laboratory conditions. The mice are individually placed in wire mesh stick cages (4" X 10") and are allowed one hour for adaption and exploration of the new environment. Then apomorphine is injected subcutaneously at 1.5 mg/kg, a dose causing climbing in all subjects for 30 minutes. Compounds to be tested for antipsychotic activity are injected intraperitoneally or given oral doses at various time intervals, e.g. 30 minutes, 60 minutes, etc. prior to the apomorphine challenge at a screening dose of 10-60 mg/kg.
For evaluation of climbing, 3 readings are taken at 10, 20 and 30 minutes after apomorphine administration according to the following scale:
Mice consistently climbing before the injection of apomorphine are discarded.
With fully-developed apomorphine climbing, the animals are hanging on to the cage walls, rather motionless, over longer periods of time. By contrast, climbs due to mere motor stimulation usually only last a few seconds.
The climbing scores are individually totaled (maximal score: 6 per mouse over 3 readings) and the total score of the control group (vehicle intraperitoneally-apomorphine subcutaneously) is set to 100%. ED₅₀ values with 95% confidence limits, calculated by a linear regression analysis, of representative compounds of the present invention as well as a standard antipsychotic agent are presented in Table 1.

[1] = target: T1, serotonin (5-hydroxytryptamine [5HT]) uptake (Rattus norvegicus, UniProt P31652); assay: ³H-serotonin uptake in rat whole brain and hypothalamic synaptosomes; assay type: biochemical; conditions: inhibition of [³H]-5HT uptake, 50 nM ³H-5HT, rat whole brain minus cerebella or hypothalamus, 37°C for 5 minutes; log-probit analysis; read-out: 5-HT-IC₅₀
T1 construct: Either whole brain minus cerebella or hypothalmus is weighed and homogenized in 9 volumes of ice-cold 0.32 M sucrose; from tissue; host or cells: Male Wistar rat brain (whole brain minus cerebella, or hypothalamus), S1 supernatant / synaptosomes
Description: This activity is determined in an assay which measures ³H-serotonin uptake in rat whole brain and hypothalamic synaptosomes. The assay described below is used as a biochemical screen for potential antidepressants which block serotonin (5-hydroxytryptamine [5HT]) uptake.
1. Krebs-Henseleit Bicarbonate Buffer, pH 7.4 (KHBB): Prepare a 1 liter batch containing the following salts.
The batch is aerated for 60 minutes with 95% 0₂/5% CO₂, the pH is checked to insure it is at 7.4 ± 0.1. 2. Add 0.32 M sucrose: 21.9 g of sucrose, q.s. to 200 ml. 3. A 0.1mM stock solution of serotonin creatinine SO₄ is made up in 0.01 N HCl. This is used to dilute the specific activity of the radiolabeled 5HT. 4. 5-[1,2-³H(N)]-Hydroxytryptamine creatinine sulfate (serotonin) specific activity 20-30 Ci/mmol is used. The final desired concentration of ³H-5HT in the assay is 50 nM. The dilution factor is 0.8. The KHBB is made up to contain 62.5 nM of [³H]-5HT. Add to 100 ml of KHBB.
5. For most assays, a 1mM stock solution of the test compound is made up in a suitable solvent and serially diluted such that the final concentration in the assay ranges from 2 X 10⁻⁸ to 2 X 10⁻⁵M. Seven concentrations are used for each assay.
Male Wistar rats are decapitated and the brain rapidly removed. Either whole brain minus cerebella or hypothalmus is weighed and homogenized in 9 volumes of ice-cold 0.32 M sucrose using a Potter-Elvejhem homogenizer. The homogenate is centrifuged at 1000 g for 10 minutes at 0-4°C. The supernatant (S₁) is decanted and is used for uptake determination.
800 µl KHBB + [³H]-5HT 20 µl Vehicle or appropriate drug 200 µl Tissue suspension concentration
Tubes are incubated at 37°C under a 95%O₂/5% CO₂ atmosphere for 5 minutes. For each assay, 3 tubes are incubated with 20 µl of vehicle at 0°C in an ice bath. After incubation all tubes are immediately centrifuged at 4000 g for 10 minutes. The supernatant fluid is aspirated and the pellets dissolved by adding 1 ml of solubilizer (Triton X-100 and 50% ethanol, 1:4 v/v). The tubes are vigorously vortexted, decanted into scintillation vials, and counted in 10 ml of Liquiscint scintillation counting cocktail. Active uptake is the difference between cpm at 37°C and 0°C. The per cent inhibition at each drug concentration is the mean of three determinations. IC₅₀ values are derived from log-probit analysis.

T1 sequence (P31652 whole entry): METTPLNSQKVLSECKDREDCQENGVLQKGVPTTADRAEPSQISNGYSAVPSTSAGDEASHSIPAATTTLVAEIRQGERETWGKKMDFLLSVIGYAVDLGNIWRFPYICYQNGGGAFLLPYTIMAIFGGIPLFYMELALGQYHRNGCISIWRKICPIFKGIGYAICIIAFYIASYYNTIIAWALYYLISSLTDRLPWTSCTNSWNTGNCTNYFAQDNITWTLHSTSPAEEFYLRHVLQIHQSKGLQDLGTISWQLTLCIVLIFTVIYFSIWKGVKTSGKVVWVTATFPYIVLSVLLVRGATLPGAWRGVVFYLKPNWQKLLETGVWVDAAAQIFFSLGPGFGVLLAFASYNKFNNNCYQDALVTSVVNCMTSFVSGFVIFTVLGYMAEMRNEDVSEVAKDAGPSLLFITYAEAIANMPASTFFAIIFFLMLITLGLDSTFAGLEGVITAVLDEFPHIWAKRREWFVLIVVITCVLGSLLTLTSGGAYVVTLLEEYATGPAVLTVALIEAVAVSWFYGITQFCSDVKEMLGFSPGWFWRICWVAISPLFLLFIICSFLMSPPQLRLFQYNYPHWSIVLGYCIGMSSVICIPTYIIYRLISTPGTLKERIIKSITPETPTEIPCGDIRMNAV

| Compound | IC50 [1] [µM] | other results |
| --- | --- | --- |
| CN1CCN(C2=Nc3cc(Cl)ccc3Nc3ccccc32)CC1 [Clozapine, reference compound] |  | ED50 (CK-1 male mice; apomorphine 1.5 mg/kg subcutaneously, climbing score vs control group set to 100%, linear regression analysis): 8.1 mg/kg |
| COc1cc(C(C)=O)ccc1OCCN1C2CCC1CC(c1noc3ccccc13)C2 (stereo not shown) [[4-[2-[3-[1,2-Benzisoxazol-3-yl]-8-azabicyclo[3.2.1]octan-8-yl]ethoxy]-3-methoxyphenyl]ethanone fumarate] | 0.01 |  |
| COc1cc(C(C)=O)ccc1OCCN1C2CCC1CC(c1noc3cc(F)ccc13)C2 (stereo not shown) [[4-[2-[3-[6-Fluoro-1,2-benzisoxazol-3-yl]-8-azabicyclo[3.2.1]octan-8-yl]ethoxy]-3-methoxyphenyl]ethanone fumarate] |  | ED50 (CK-1 male mice): 12.5 mg/kg |
| COc1cc(C(C)=O)ccc1OCCCN1C2CCC1CC(c1noc3cc(F)ccc13)C2 (stereo not shown) [[4-[3-[3-[6-Fluoro-1,2-benzisoxazol-3-yl]-8-azabicyclo[3.2.1]octan-8-yl]propoxy]-3-methoxyphenyl] ethanone monohydrochloride] |  | ED50 (CK-1 male mice): 5 mg/kg |
| COc1cc(C(C)=O)ccc1OCCCCN1C2CCC1CC(c1nsc3ccccc13)C2 (stereo not shown) [[4-[4-[3-[1,2-Benzisothiazol-3-yl]-8-azabicyclo[3.2.1]octan-8-yl]butoxy]-3-methoxyphenyl]ethanone monohydrochloride] | 0.027 |  |
| COc1cc(C(C)=O)ccc1OCCCCN1C2CCC1CC(c1n[nH]c3ccccc13)C2 (stereo not shown) [[4-[4-[3-[1H-Indazol-3-yl]-8-azabicyclo[3.2.1]octan-8-yl]butoxy]-3-methoxyphenyl]ethanone fumarate hemihydrate] | 0.07 |  |
| COc1cc(C(C)=O)ccc1OCCCCN1C2CCC1CC(c1n[nH]c3cc(F)ccc13)C2 (stereo not shown) [[4-[4-[3-[6-Fluoro-1H-indazol-3-yl]-8-azabicyclo[3.2.1]-octan-8-yl]butoxy]-3-methoxyphenyl]ethanone] | 0.02 |  |
